Measurements: patent US20190246658A1, “METHODS OF HANDLING PAPAYA” (AGROFRESH INC., priority 2013, published 2019)

Tests used:
Papayas ‘Golden’ [1] = test: Example 1: pulp firmness, internal (FTA); type: in vivo, papaya; conditions: for Pulp Firmness - Internal: 100 ppb of MCP
Protocol: Papayas ‘Golden’ were harvested in Linhares—Espírito Santo—Brazil. The harvested fruits were packed in MAP Bags and put in cardboard boxes.
(§1) The appropriate weight of papayas was placed in each bag after harvest. Bags were placed in the same cardboard boxes used to export the fruits. Papayas then were cold stored at (11° C.) at the Laboratory.
The Test Protocol that was used was as follows. 36 MAP bags were packed. Each bag held approximately 3.8 kg (8.4 lb) of papayas. One such bag was packed in each cardboard box. Total weight of papayas in MAP bags was approximately 137 kg. Approximately 91 kg of papayas were placed into cardboard boxes identical to those used for the MAP bags.
(§2) The MAP-packaged papayas were packaged as follows: Nine fruits, approximately 3.8 kg were carefully placed into microperforated bags, and the bags were sealed by twisting the open side of the bag, folding down the twisted end, and placing a rubber band around the twisted and folded end of the bag.
All papayas were kept at cold temperature (11° C.) during 27 days and after that the fruits (packed in MAP bags or not) were put in room temperature (22° C.) during 8 days.
One day after harvest, when the papayas had around 25 lbf of average firmness, each treatment set was marked, placed in a hermetical chamber at cold temperature (11° C.). All chambers were of equal size and packed the same way. Treatment was for 12 hours. In the chambers for the 3 “MCP” treatment groups, at the beginning of the treatment period, SmartFresh™ were placed in the chamber. The amount of SmartFresh™ was chosen to achieve the indicated concentration of 1-methylcyclopropene in the atmosphere of the chamber.
(§3) Evaluation for skin color and firmness was as follows. Day “zero” was the day the papayas were removed from the chamber and placed in storage.
For the Pulp Firmness evaluation two measurements where done, one for External Firmness and another for Internal Firmness. For External Firmness, the papayas had the skin removed with a peeler and the pulp firmness was measured with a Firmness Texture Analyzer (FTA) with a probe of 8 mm. For Internal Firmness, the papayas were cut transversally and a measurement close to the center of the fruit was taken with the FTA.

Papayas ‘Golden’ [2] = test: Example 2 (yellow stage): weight loss; type: in vivo, papaya; conditions: for Weight loss: 500 ppb of MCP
Protocol: (§4) A similar test to Example 1 but papayas are tested during their yellow stage. Papayas ‘Golden’ were harvested in Linhares—Espírito Santo—Brazil. The fruits were packed in MAP Bags and put in cardboard boxes.
(§5) The fruits were first left at room temperature during 3 days to reach yellow maturity stage.
(§6) After that the appropriate weight of papayas was placed in each bag after harvest. Bags were placed in the same cardboard boxes used to export the fruits. Papayas then were cold stored at (11° C.) at the Laboratory.
(§7) The Test Protocol that was used was as follows. 18 MAP bags were packed. Each bag held approximately 3.8 kg (8.4 lb) of papayas. One such bag was packed in each cardboard box. Total weight of papayas in MAP bags was approximately 68 kg. Approximately 68 kg of papayas were placed into cardboard boxes identical to those used for the MAP bags.
as §2
(§8) All papayas were kept at cold temperature (11° C.) during 26 days and after that the fruits (packed in MAP bags or not) were put in room temperature (22° C.) during 8 days.
(§9) After the 3 days for maturation at room temperature, when the papayas had around 5 lbf of average firmness, each treatment set was marked, placed in a hermetical chamber at cold temperature (11° C.). All chambers were of equal size and packed the same way. Treatment was for 12 hr. In the chambers for the 2 “MCP” treatment groups, at the beginning of the treatment period, SmartFresh™ were placed in the chamber. The amount of SmartFresh™ was chosen to achieve the indicated concentration of 1-methylcyclopropene in the atmosphere of the chamber.
Weight loss was measured using the difference in weight observed in selected papayas from each treatment. These fruits were weighted before the cold storage and then the same fruits were weighted on the evaluations days.

Papayas ‘Golden’ [3] = test: Example 2 (yellow stage): pulp firmness, external; type: in vivo, papaya; conditions: for Pulp Firmness - External: 500 ppb of MCP
Protocol: as §4, §5, §6, §7, §2, §8, §9, §3
For the Pulp Firmness evaluation two measurements were done, one for External Firmness and another for Internal Firmness. For External Firmness, the papayas had the skin removed with a peeler and the pulp firmness was measured with a Firmness Texture Analyzer (FTA) with a probe of 8 mm. For Internal Firmness, the papayas were cut transversally and a measurement close to the center of the fruit was taken with the FTA.

Papayas ‘Golden’ [4] = test: Example 3: papaya skin color rating, MAP bags with different perforations; type: in vivo; conditions: for Skin color ratings: 100 ppb of MCP, scale 1 green to 5 yellow
Protocol: Papayas ‘Golden’ were harvested in Linhares—Espírito Santo—Brazil. The fruits were packed in MAP Bags and put in cardboard boxes.
as §1
The Test Protocol that was used was as follows. 40 MAP bags were packed. Each bag held approximately 3.8 kg (8.4 lb) of papayas. One of such bag was packed in each cardboard box. Total weight of papayas in MAP bags was approximately 152 kg. Approximately 8 kg of papayas were placed into cardboard boxes identical to those used for the MAP bags.
The MAP-packaged papayas were packaged as follows: Nine fruits, approximately 3.8 kg, were carefully placed into microperforated MAP-bags, and the bags were sealed by twisting the open side of the bag, folding down the twisted end, and placing a rubber band around the twisted and folded end of the bag.
All papayas were kept at cold temperature (11° C.) during 14 days and after that the fruits (packed in MAP bags or not) were put in room temperature (24° C.) during 5 days.
One day after harvest, when the papayas had around 30 lbf of average firmness, each treatment set was marked and placed in a hermetical chamber at cold temperature (11° C.). All chambers were of equal size and packed the same way. Treatment was for 12 hours.
In the chambers, SmartFresh™ was placed at the beginning of the treatment period for the 5 “MCP” treatment groups. The amount of SmartFresh™ was chosen to achieve the indicated concentration of 1-methylcyclopropene in the atmosphere of the chamber.
as §3
The Papaya Skin Color was rated with the following scale: 1: green; 2: approximately 25%; 3: approximately 50% colored; 4: approximately 75% colored; 5: yellow.

[5] = MAP bag, 26 days at 11° C. then 0 days @ 22° C.
[6] = MAP bag, 26 days at 11° C. then 4 days @ 22° C.
[7] = MAP bag, 26 days at 11° C. then 8 days @ 22° C.
[8] = No Bag, 26 days at 11° C. then 0 days @ 22° C.
[9] = No Bag, 26 days at 11° C. then 4 days @ 22° C.
[10] = No Bag, 26 days at 11° C. then 8 days @ 22° C.

For `CC1=CC1` [MCP, 1-methylcyclopropene], the “internal firmness during shelf-life, in words” value (Papayas ‘Golden’ [1]; 1-MCP alone (no MAP)) was “too high internal firmness”, the “Pulp Firmness - Internal” value (Papayas ‘Golden’ [1]; MAP bag, 27 days at 11° C. then 0 days @ 22° C.) was 3.3 lbf and the “Pulp Firmness - Internal” value (Papayas ‘Golden’ [1]; MAP bag, 27 days at 11° C. then 4 days @ 22° C.) was 3.2 lbf. The “Pulp Firmness - Internal” value (Papayas ‘Golden’ [1]; MAP bag, 27 days at 11° C. then 8 days @ 22° C.) was 1.5 lbf, the “Pulp Firmness - Internal” value (Papayas ‘Golden’ [1]; No Bag, 27 days at 11° C. then 0 days @ 22° C.) was 16.9 lbf and the “Pulp Firmness - Internal” value (Papayas ‘Golden’ [1]; No Bag, 27 days at 11° C. then 4 days @ 22° C.) was 12.2 lbf. For the same compound, the “Pulp Firmness - Internal” value (Papayas ‘Golden’ [1]; No Bag, 27 days at 11° C. then 8 days @ 22° C.) was 3.2 lbf, the “weight loss, in words” value (Papayas ‘Golden’ [2]; 1-MCP alone (no MAP)) was “elevated weight loss” and the Weight loss (Papayas ‘Golden’ [2]; [5]) was 0.68%. For the same compound, the Weight loss (Papayas ‘Golden’ [2]; [6]) was 1.21%, the Weight loss (Papayas ‘Golden’ [2]; [7]) was 2.09% and the Weight loss (Papayas ‘Golden’ [2]; [8]) was 5.42%. The Weight loss (Papayas ‘Golden’ [2]; [9]) was 9.07%, the Weight loss (Papayas ‘Golden’ [2]; [10]) was 16.53% and the “external firmness during shelf-life, in words” value (Papayas ‘Golden’ [3]; 1-MCP alone, compared to the present invention (1-MCP + MAP)) was “lower efficiency to maintain external firmness”. The “Pulp Firmness - External” value (Papayas ‘Golden’ [3]; [5]) was 3.84 lbf, the “Pulp Firmness - External” value (Papayas ‘Golden’ [3]; [6]) was 1.98 lbf and the “Pulp Firmness - External” value (Papayas ‘Golden’ [3]; [7]) was 1.30 lbf. For the same compound, the “Pulp Firmness - External” value (Papayas ‘Golden’ [3]; [8]) was 3.03 lbf, the “Pulp Firmness - External” value (Papayas ‘Golden’ [3]; [9]) was 1.88 lbf and the “Pulp Firmness - External” value (Papayas ‘Golden’ [3]; [10]) was 1.11 lbf. The “papayas color, in words” value (Papayas ‘Golden’ [4]; 1-MCP alone (no MAP)) was “did not hold the papayas color”, the Skin color ratings (Papayas ‘Golden’ [4]; 24 Perf. MAP bag, 14 days at 11° C. then 0 days @ 24° C.) was 1.60 and the Skin color ratings (Papayas ‘Golden’ [4]; 24 Perf. MAP bag, 14 days at 11° C. then 3 days @ 24° C.) was 2.04. For the same compound, the Skin color ratings (Papayas ‘Golden’ [4]; 24 Perf. MAP bag, 14 days at 11° C. then 5 days @ 24° C.) was 3.75, the Skin color ratings (Papayas ‘Golden’ [4]; 48 Perf. MAP bag, 14 days at 11° C. then 0 days @ 24° C.) was 1.96 and the Skin color ratings (Papayas ‘Golden’ [4]; 48 Perf. MAP bag, 14 days at 11° C. then 3 days @ 24° C.) was 3.02. It also gave a Skin color ratings (Papayas ‘Golden’ [4]; 48 Perf. MAP bag, 14 days at 11° C. then 5 days @ 24° C.) of 4.52, a Skin color ratings (Papayas ‘Golden’ [4]; 90 Perf. MAP bag, 14 days at 11° C. then 0 days @ 24° C.) of 1.71 and a Skin color ratings (Papayas ‘Golden’ [4]; 90 Perf. MAP bag, 14 days at 11° C. then 3 days @ 24° C.) of 3.18. For the same compound, the Skin color ratings (Papayas ‘Golden’ [4]; 90 Perf. MAP bag, 14 days at 11° C. then 5 days @ 24° C.) was 4.36, the Skin color ratings (Papayas ‘Golden’ [4]; 180 Perf. MAP bag, 14 days at 11° C. then 0 days @ 24° C.) was 1.73 and the Skin color ratings (Papayas ‘Golden’ [4]; 180 Perf. MAP bag, 14 days at 11° C. then 3 days @ 24° C.) was 4.13. The Skin color ratings (Papayas ‘Golden’ [4]; 180 Perf. MAP bag, 14 days at 11° C. then 5 days @ 24° C.) was 4.84, the Skin color ratings (Papayas ‘Golden’ [4]; No Bag, 14 days at 11° C. then 0 days @ 24° C.) was 1.82 and the Skin color ratings (Papayas ‘Golden’ [4]; No Bag, 14 days at 11° C. then 3 days @ 24° C.) was 4.11. The Skin color ratings (Papayas ‘Golden’ [4]; No Bag, 14 days at 11° C. then 5 days @ 24° C.) was 4.96 and the “skin coloring delay and external pulp firmness retention, in words” value (Papayas ‘Golden’ [4]; combination of 1-MCP and MAP bag versus any treatment alone) was “synergistic effect”.
